Reference: patent US4613355A, “Antibiotic having herbicidal activity” (Satoshi Omura, priority 1983, dated 1986)

Columns and labels:
Type in all cases: in vivo
Cryptomeria japonica = experiment: Foliage treatment of woody plants (Example 10); set-up: key to damage to the plants, scale 0 to 5: 0 indicates no effect; 5 indicates complete kill; conditions: CP Cryptomeria japonica
Text: (§1) Aqueous solutions containing Phosalacine (Na salt) at different concentrations and 0.1% of octylphenylpolyoxy ethanol as surfactant were applied at a rate of 1500 liter per hectare to woody plants of about 60-70 cm in height. 7 and 14 days after the foliage treatment, damage to the plants was visually assessed on a scale of from 0 to 5 (cf. Example 7).

Chamaecyparis obtusa = experiment: Foliage treatment of woody plants (Example 10); set-up: key to damage to the plants, scale 0 to 5: 0 indicates no effect; 5 indicates complete kill; conditions: CH Chamaecyparis obtusa
Text: as §1

Raphanus sativus = experiment: Foliage treatment (Example 8); set-up: key: 0 indicates no effect; 5 indicates complete kill; conditions: Plant No. 32 Raphanus sativus
Method: (§2) Aqueous solutions of Phosalacine (Na salt) at different concentrations were applied at a rate of 1500 liters per hectare to naturally occurring plants or plants which were cultured on plates as shown in the following Table at certain stages of growth. […] One month after the foliage treatment, the inhibition of regrowth of the plants was visually investigated.

Digitaria adscendens = experiment: Foliage treatment (Example 8); set-up: key: 0 indicates no effect; 5 indicates complete kill; conditions: Plant No. 10 Digitaria adscendens
Method: as §2

Daucus carota = experiment: Foliage treatment (Example 8); set-up: key: 0 indicates no effect; 5 indicates complete kill; conditions: Plant No. 29 Daucus carota
Method: as §2

Cayratia japonica = experiment: Foliage treatment (Example 8); set-up: key: 0 indicates no effect; 5 indicates complete kill; conditions: Plant No. 13 Cayratia japonica
Method: as §2

Pueraria lobata = experiment: Foliage treatment (Example 8); set-up: key: 0 indicates no effect; 5 indicates complete kill; conditions: Plant No. 16 Pueraria lobata
Method: as §2

Pleioblastus chino = experiment: Foliage treatment (Example 8); set-up: key: 0 indicates no effect; 5 indicates complete kill; conditions: Plant No. 11 Pleioblastus chino
Method: as §2

Oryzae sativa = experiment: Foliage treatment (Example 8); set-up: key: 0 indicates no effect; 5 indicates complete kill; conditions: Plant No. 25 Oryzae sativa
Method: as §2

Helianthus tuberosus = experiment: Foliage treatment (Example 8); set-up: key: 0 indicates no effect; 5 indicates complete kill; conditions: Plant No. 12 Helianthus tuberosus
Method: as §2

Solanum melongena = experiment: Foliage treatment (Example 8); set-up: key: 0 indicates no effect; 5 indicates complete kill; conditions: Plant No. 31 Solanum melongena
Method: as §2

Imperata cyrindrica = experiment: Foliage treatment (Example 8); set-up: key: 0 indicates no effect; 5 indicates complete kill; conditions: Plant No. 15 Imperata cyrindrica
Method: as §2

Rumex obtusifolius = experiment: Foliage treatment (Example 8); set-up: key: 0 indicates no effect; 5 indicates complete kill; conditions: Plant No. 14 Rumex obtusifolius
Method: as §2

Triticum aestivum = experiment: Foliage treatment (Example 8); set-up: key: 0 indicates no effect; 5 indicates complete kill; conditions: Plant No. 26 Triticum aestivum
Method: as §2

Picea densiflora = experiment: Foliage treatment of woody plants (Example 10); set-up: key: 0 indicates no effect; 5 indicates complete kill; conditions: Plant No. 22 Picea densiflora
Text: as §1

Larix leptolepis = experiment: Foliage treatment of woody plants (Example 10); set-up: key: 0 indicates no effect; 5 indicates complete kill; conditions: Plant No. 23 Larix leptolepis
Text: as §1

Castanea crenata = experiment: Foliage treatment of woody plants (Example 10); set-up: key: 0 indicates no effect; 5 indicates complete kill; conditions: Plant No. 8 Castanea crenata
Text: as §1

C[C@H](NC(=O)[C@H](C)NC(=O)[C@@H](N)CCP(C)(=O)[O-])C(=O)O.[Na+] [SF, reference compound]
damage to the plants, scale 0 to 5 (Cryptomeria japonica; 0.125%, 7 days): 0 | damage to the plants, scale 0 to 5 (Cryptomeria japonica; 0.125%, 14 days): 0 | damage to the plants, scale 0 to 5 (Cryptomeria japonica; 0.25%, 7 days): 0 | damage to the plants, scale 0 to 5 (Cryptomeria japonica; 0.25%, 14 days): 1 | damage to the plants, scale 0 to 5 (Cryptomeria japonica; 0.5%, 7 days): 0 | damage to the plants, scale 0 to 5 (Cryptomeria japonica; 0.5%, 14 days): 2 | damage to the plants, scale 0 to 5 (Chamaecyparis obtusa; 0.125%, 7 days): 0 | damage to the plants, scale 0 to 5 (Chamaecyparis obtusa; 0.125%, 14 days): 0 | damage to the plants, scale 0 to 5 (Chamaecyparis obtusa; 0.25%, 7 days): 0 | damage to the plants, scale 0 to 5 (Chamaecyparis obtusa; 0.25%, 14 days): 0 | damage to the plants, scale 0 to 5 (Chamaecyparis obtusa; 0.5%, 7 days): 0 | damage to the plants, scale 0 to 5 (Chamaecyparis obtusa; 0.5%, 14 days): 0 | damage to the plants, scale 0 to 5 (Raphanus sativus; 0.1%, 7 days): 3 | damage to the plants, scale 0 to 5 (Raphanus sativus; 0.1%, 14 days): 4 | damage to the plants, scale 0 to 5 (Raphanus sativus; 0.2%, 7 days): 4 | damage to the plants, scale 0 to 5 (Raphanus sativus; 0.2%, 14 days): 5 | damage to the plants, scale 0 to 5 (Digitaria adscendens; 0.1%, 7 days): 3 | damage to the plants, scale 0 to 5 (Digitaria adscendens; 0.1%, 14 days): 4 | damage to the plants, scale 0 to 5 (Digitaria adscendens; 0.2%, 7 days): 5 | damage to the plants, scale 0 to 5 (Digitaria adscendens; 0.2%, 14 days): 5 | damage to the plants, scale 0 to 5 (Daucus carota; 0.1%, 7 days): 2 | damage to the plants, scale 0 to 5 (Daucus carota; 0.1%, 14 days): 4 | damage to the plants, scale 0 to 5 (Daucus carota; 0.2%, 7 days): 3 | damage to the plants, scale 0 to 5 (Daucus carota; 0.2%, 14 days): 5 | damage to the plants, scale 0 to 5 (Cayratia japonica; 0.1%, 7 days): 3 | damage to the plants, scale 0 to 5 (Cayratia japonica; 0.1%, 14 days): 4 | damage to the plants, scale 0 to 5 (Cayratia japonica; 0.2%, 7 days): 4 | damage to the plants, scale 0 to 5 (Cayratia japonica; 0.2%, 14 days): 5 | damage to the plants, scale 0 to 5 (Pueraria lobata; 0.1%, 7 days): 3 | damage to the plants, scale 0 to 5 (Pueraria lobata; 0.1%, 14 days): 4 | damage to the plants, scale 0 to 5 (Pueraria lobata; 0.2%, 7 days): 4 | damage to the plants, scale 0 to 5 (Pueraria lobata; 0.2%, 14 days): 5 | damage to the plants, scale 0 to 5 (Pleioblastus chino; 0.1%, 7 days): 3 | damage to the plants, scale 0 to 5 (Pleioblastus chino; 0.1%, 14 days): 4 | damage to the plants, scale 0 to 5 (Pleioblastus chino; 0.2%, 7 days): 4 | damage to the plants, scale 0 to 5 (Pleioblastus chino; 0.2%, 14 days): 5 | damage to the plants, scale 0 to 5 (Oryzae sativa; 0.1%, 7 days): 3 | damage to the plants, scale 0 to 5 (Oryzae sativa; 0.1%, 14 days): 4 | damage to the plants, scale 0 to 5 (Oryzae sativa; 0.2%, 7 days): 4 | damage to the plants, scale 0 to 5 (Oryzae sativa; 0.2%, 14 days): 5 | damage to the plants, scale 0 to 5 (Helianthus tuberosus; 0.1%, 7 days): 3 | damage to the plants, scale 0 to 5 (Helianthus tuberosus; 0.1%, 14 days): 4 | damage to the plants, scale 0 to 5 (Helianthus tuberosus; 0.2%, 7 days): 4 | damage to the plants, scale 0 to 5 (Helianthus tuberosus; 0.2%, 14 days): 5 | damage to the plants, scale 0 to 5 (Solanum melongena; 0.1%, 7 days): 3 | damage to the plants, scale 0 to 5 (Solanum melongena; 0.1%, 14 days): 4 | damage to the plants, scale 0 to 5 (Solanum melongena; 0.2%, 7 days): 5 | damage to the plants, scale 0 to 5 (Solanum melongena; 0.2%, 14 days): 5 | damage to the plants, scale 0 to 5 (Imperata cyrindrica; 0.1%, 7 days): 3 | damage to the plants, scale 0 to 5 (Imperata cyrindrica; 0.1%, 14 days): 4 | damage to the plants, scale 0 to 5 (Imperata cyrindrica; 0.2%, 7 days): 4 | damage to the plants, scale 0 to 5 (Imperata cyrindrica; 0.2%, 14 days): 5 | damage to the plants, scale 0 to 5 (Rumex obtusifolius; 0.1%, 7 days): 3 | damage to the plants, scale 0 to 5 (Rumex obtusifolius; 0.1%, 14 days): 4 | damage to the plants, scale 0 to 5 (Rumex obtusifolius; 0.2%, 7 days): 4 | damage to the plants, scale 0 to 5 (Rumex obtusifolius; 0.2%, 14 days): 5 | damage to the plants, scale 0 to 5 (Triticum aestivum; 0.1%, 7 days): 3 | damage to the plants, scale 0 to 5 (Triticum aestivum; 0.1%, 14 days): 4 | damage to the plants, scale 0 to 5 (Triticum aestivum; 0.2%, 7 days): 4 | damage to the plants, scale 0 to 5 (Triticum aestivum; 0.2%, 14 days): 5 | damage to the plants, scale 0 to 5 (Picea densiflora; 0.125%, 7 days): 4 | damage to the plants, scale 0 to 5 (Picea densiflora; 0.125%, 14 days): 5 | damage to the plants, scale 0 to 5 (Picea densiflora; 0.25%, 7 days): 4 | damage to the plants, scale 0 to 5 (Picea densiflora; 0.25%, 14 days): 5 | damage to the plants, scale 0 to 5 (Picea densiflora; 0.5%, 7 days): 4 | damage to the plants, scale 0 to 5 (Picea densiflora; 0.5%, 14 days): 5 | damage to the plants, scale 0 to 5 (Larix leptolepis; 0.125%, 7 days): 4 | damage to the plants, scale 0 to 5 (Larix leptolepis; 0.125%, 14 days): 5 | damage to the plants, scale 0 to 5 (Larix leptolepis; 0.25%, 7 days): 4 | damage to the plants, scale 0 to 5 (Larix leptolepis; 0.25%, 14 days): 5 | damage to the plants, scale 0 to 5 (Larix leptolepis; 0.5%, 7 days): 4 | damage to the plants, scale 0 to 5 (Larix leptolepis; 0.5%, 14 days): 5 | damage to the plants, scale 0 to 5 (Castanea crenata; 0.125%, 7 days): 5 | damage to the plants, scale 0 to 5 (Castanea crenata; 0.125%, 14 days): 5 | damage to the plants, scale 0 to 5 (Castanea crenata; 0.25%, 7 days): 5 | damage to the plants, scale 0 to 5 (Castanea crenata; 0.25%, 14 days): 5 | damage to the plants, scale 0 to 5 (Castanea crenata; 0.5%, 7 days): 5 | damage to the plants, scale 0 to 5 (Castanea crenata; 0.5%, 14 days): 5
